{
  "source": "patent US10881694B2",
  "about": "“In vitro model for neuronal death” (priority 2003, dated 2021)",
  "key": {"[1]": {"tested_on": "cortical neurons", "experiment": "Polarization of somal lipid raft microdomains (CTx-B staining) in cultured cortical neurons", "assay_type": "cell-based, mouse", "conditions": "for inhibition of lipid raft / microdomain polarization: treatment of cortical cultures, neurotoxic insult not specified; for percentage of neurons with polarized raft microdomains: cholesterol-depleted vs control neurons; for inhibition of lipid raft polarization: FIG. 3, 25 μM A-beta 25-35 peptide and 300 μM NMDA"}, "[2]": {"tested_on": "cortical neurons", "experiment": "Neuronal death by LDH release assay (and chromatin fragmentation, FIG. 3) after neurotoxic exposure", "assay_type": "cell-based, mouse", "conditions": "for effect of co-treatment on neuroprotection by statins: co-treatment with HMG-CoA reductase inhibitor"}, "[3]": {"tested_on": "cortical neurons", "experiment": "Chromatin integrity (DAPI): nuclei with condensed and fragmented chromatin", "assay_type": "cell-based, mouse", "conditions": "cholesterol-depleted vs control neurons"}, "[4]": {"conditions": "active form of mevastatin; cited from earlier work"}, "[5]": {"conditions": "three hours following 20 μM Aβ 25-35"}},
  "data": [
    {"compound": "C[N+](C)(C)CC(O)CC(=O)[O-]", "note": "(stereo not shown) [carnitine]", "values": [
      {"measurement": "inhibition of lipid raft / microdomain polarization", "setting": "[1]", "result": "inhibit raft polarization"}
    ]},
    {"compound": "latrunculins", "values": [
      {"measurement": "inhibition of lipid raft / microdomain polarization", "setting": "[1]", "result": "prevents the polarization of lipid microdomains"}
    ]},
    {"compound": "CC[C@H](C)C(=O)O[C@H]1CCC=C2C=C[C@H](C)[C@H](CC[C@@H]3C[C@@H](O)CC(=O)O3)[C@H]21", "note": "[mevastatin]", "values": [
      {"measurement": "percentage of neurons with polarized raft microdomains", "setting": "[1]; 1 h following 300 μM NMDA", "result": "significantly lower"},
      {"measurement": "inhibition of lipid raft polarization", "setting": "[1]", "result": "inhibit lipid raft polarization"},
      {"measurement": "percentage of neurons with polarized raft microdomains", "setting": "[1]; [5]", "result": "significantly lower"},
      {"measurement": "protection against neurotoxic exposure (LDH release assay and chromatin fragmentation)", "setting": "[2]; 25 μM A-beta 25-35 peptide", "result": "protect against neurotoxic exposure"},
      {"measurement": "protection against neurotoxic exposure (LDH release assay and chromatin fragmentation)", "setting": "[2]; 300 μM NMDA", "result": "protect against neurotoxic exposure"},
      {"measurement": "percentage of neurons with condensed and fragmented chromatin", "setting": "[3]; 24 h following 300 μM NMDA", "result": "significantly lower"},
      {"measurement": "percentage of neurons with condensed and fragmented chromatin", "setting": "[3]; 48 h following 20 μM Aβ 25-35", "result": "significantly lower"},
      {"measurement": "lipophilicity relative to simvastatin (times less lipophilic)", "setting": "[4]", "result": "approximately 8 times"}
    ]},
    {"compound": "A-beta 25-35 peptide: beta-amyloid peptide fragment 25-35, neurotoxic stimulus (GSNKGAIIGLM; Amyloid-beta protein 42; UniProt P05067 696-706, looked up, fragment)", "values": [
      {"measurement": "induction of raft microdomain polarization to a pole of the neuronal cell body", "setting": "[1]; neurotoxic stimulus, FIG. 1B", "result": "aggregation and polarization of raft microdomains"}
    ]},
    {"compound": "methyl-β-cyclodextrin [βCD]", "values": [
      {"measurement": "inhibition of raft polarization", "setting": "[1]; 15 min exposure to 25 μM A-beta 25-35 peptide, 1 hr pre-treatment", "result": "inhibition of raft polarization"},
      {"measurement": "percentage of neurons with polarized raft microdomains", "setting": "[1]; 1 h following 300 μM NMDA", "result": "significantly lower"},
      {"measurement": "inhibition of lipid raft polarization", "setting": "[1]", "result": "inhibit lipid raft polarization"},
      {"measurement": "percentage of neurons with polarized raft microdomains", "setting": "[1]; [5]", "result": "significantly lower"},
      {"measurement": "inhibition of lipid raft / microdomain polarization", "setting": "[1]", "result": "inhibits lipid raft polarization"},
      {"measurement": "protection against neurotoxic exposure (LDH release assay and chromatin fragmentation)", "setting": "[2]; 25 μM A-beta 25-35 peptide", "result": "protect against neurotoxic exposure"},
      {"measurement": "protection against neurotoxic exposure (LDH release assay and chromatin fragmentation)", "setting": "[2]; 300 μM NMDA", "result": "protect against neurotoxic exposure"},
      {"measurement": "protection against neuronal death / neurotoxic insults", "setting": "[2]; treatment of cortical cultures, insult not specified", "result": "protects against neuronal death"},
      {"measurement": "percentage of neurons with condensed and fragmented chromatin", "setting": "[3]; 24 h following 300 μM NMDA", "result": "significantly lower"},
      {"measurement": "percentage of neurons with condensed and fragmented chromatin", "setting": "[3]; 48 h following 20 μM Aβ 25-35", "result": "significantly lower"}
    ]},
    {"compound": "CC(C)CCC[C@@H](C)[C@H]1CC[C@H]2[C@@H]3CC=C4C[C@@H](O)CC[C@]4(C)[C@H]3CC[C@]12C", "note": "[cholesterol]", "values": [
      {"measurement": "effect on cholesterol depletion induced resistance to neuronal death (LDH release)", "setting": "[2]; 5 μM cholesterol co-incubated with mevastatin, or 2 mM cholesterol complexed with 2.5% βCD for 15 min after 1% βCD, 20 μM Aβ 25-35 or NMDA", "result": "prevented"},
      {"measurement": "effect of co-treatment on neuroprotection by statins", "setting": "[2]", "result": "substantially attenuated"}
    ]},
    {"compound": "C=C1[C@@H](C)[C@H]2[C@H](Cc3ccccc3)NC(=O)[C@]23[C@H](OC(C)=O)/C=C/[C@@](C)(O)C(=O)[C@@H](C)C/C=C/[C@H]3[C@@H]1O", "note": "[cytochalasin D]", "values": [
      {"measurement": "inhibition of lipid raft / microdomain polarization", "setting": "[1]", "result": "prevents the polarization of lipid microdomains"}
    ]},
    {"compound": "CC(O)(CCO)CC(=O)O", "note": "(stereo not shown) [mevalonate]", "values": [
      {"measurement": "effect of co-treatment on neuroprotection by statins", "setting": "[2]", "result": "substantially attenuated"}
    ]}
  ]
}
